{"source": "patent US20240016773A1", "about": "“COMPOSITIONS AND METHODS FOR DIAGNOSIS AND TREATMENT OF CONDITIONS RELATED TO AGING” (EPITRACKER, INC., priority 2018, published 2024)", "key": {"[1]": {"system": "HDF3CGF system: dermal fibroblasts (IFNγ, TNFα, IL-1β, EGF, bFGF, PDGF-BB)", "test": "BioMAP Diversity PLUS, HDF3CGF system", "format": "cell-based, human", "conditions": "HD3CGF (so in the source)", "description": "(§1) The Diversity PLUS panel allows test agent characterization in an unbiased way across a broad set of systems modeling various human disease states. These systems are designed to model complex human tissue and disease biology of the vasculature, skin, lung, and inflammatory tissues. Quantitative measurements of 148 biomarker activities across this broad panel, along with comparative analysis of biological activities from known bioactive agents, were used to predict and compare the efficacy and function of each selected compound at four concentrations (740 nm and 2.2, 6.7 and 20 μM).\n(§2) BioMAP systems are constructed with one or more primary cell types from healthy human donors, with stimuli (such as cytokines or growth factors) added to capture relevant signaling networks that naturally occur in human tissue or pathological conditions. Vascular biology is modeled in both a Th1 (3C system) and a Th2 (4H system) inflammatory environment, as well as in a Th1 inflammatory state specific to arterial smooth muscle cells (CASM3C system). Additional systems recapitulate aspects of the systemic immune response including monocyte-driven Th1 inflammation (LPS system) or T cell stimulation (SAg system), chronic Th1 inflammation driven by macrophage activation (lMphg system) and the T cell-dependent activation of B cells that occurs in germinal centers (BT system). The BE3C system (Th1) and the BF4T system (Th2) represent airway inflammation of the lung, while the MyoF system models myofibroblast-lung tissue remodeling. Lastly, skin biology is addressed in the KF3CT system modeling Th1 cutaneous inflammation and the HDF3CGF system modeling wound healing.\n(§3) Each test agent generates a signature BioMAP profile that is created from the changes in protein biomarker readouts within individual system environments. Biomarker readouts (7-17 per system) are selected for therapeutic and biological relevance, are predictive for disease outcomes or specific drug effects and are validated using agents with known mechanism of action (MoA). Each readout is measured quantitatively by immune-based methods that detect protein (e.g., ELISA) or functional assays that measure proliferation and viability. BioMAP readouts are diverse and include cell surface receptors, cytokines, chemokines, matrix molecules and enzymes. In total, the Diversity PLUS panel contains 148 biomarker readouts that capture biological changes that occur within the physiological context of the particular BioMAP system. Specific BioMAP activities have been correlated to in vivo biology, and multiparameter BioMAP profiles have been used to distinguish compounds based on MoA and target selectivity across diverse physiological systems.\n(§4) Activated BioMAP systems were incubated with each compound for 24 to 72 hours. Protein-based biomarkers from activated cell systems were measured and compared with non-treated control systems."}, "[2]": {"system": "BT system: peripheral blood mononuclear cells, B cells (α-IgM, TCR ligands)", "test": "BioMAP Diversity PLUS, BT system", "format": "cell-based, human", "description": "as §1, §2, §3, §4"}, "[3]": {"system": "CD19+ B cells and peripheral blood mononuclear cells stimulated with α-IgM and TCR ligands", "test": "First cell-based system: T cell-dependent activation of B cells (allergy)", "set-up": "species or system human", "procedure": "This study examined the impact of synthetic pentadecanoic acid (C15:0) at four concentrations (740 nm and 2.2, 6.7, and 20 μM) on three primary human cell-based activity systems that were exposed to agents that mimicked allergic, thrombotic, and fibrotic disease states. In general, protein-based biomarkers in these systems were measured and compared with controls. Pentadecanoic acid was considered ‘active’ when 2 or more consecutive concentrations changed a given biomarker in the same direction relative to vehicle controls, were outside of the significance envelope of internal controls, and had at least one concentration with an effect size greater than 20% (log 10 ratio >0.1).\nThe first cell-based system recapitulated T cell-dependent activation of B cells that occurs in germinal centers to mimic allergy disease states. CD19^+ B cells and peripheral blood mononuclear cells were stimulated with α-IgM and TCR ligands and incubated with pentadecanoic acid for 168 hours. In addition to controls that were not treated with pentadecanoic acid, a negative, non-stimulated system was also included. Secreted IgG was measured and compared with controls."}, "[4]": {"system": "twelve different human primary cell systems mimicking various disease states", "test": "BioMAP Diversity PLUS panel, twelve human primary cell systems (summary by disease)", "format": "cell-based", "set-up": "key: x: Significantly reduced cell-based biomarkers relevant to specific diseases and conditions", "description": "As a proof of concept, 14 compounds were selected from our compound library based on predicted efficacy in lowering inflammation in dolphins. Pure synthetic forms of these compounds were screened for cell-based activities (relevant to multiple aging-associated diseases and diseases that may impact longevity) using twelve different human primary cell systems mimicking various disease states (TABLE 4—description of primary human cell systems used to screen selected compounds in library).\nas §1, §2, §3, §4"}}, "data": [{"molecule": "CCCCCCCCCCCCCCC(=O)O", "note": "[Pentadecanoic acid, pentadecanoic acid]", "values": [{"measurement": "Significant log10 reduction vs nontreated controls: 72-hour fibroblast proliferation", "setting": "[1]; 6.7 μM", "value": "−0.67", "unit": "log10"}, {"measurement": "Significant log10 reduction vs nontreated controls: Collagen I", "setting": "[1]; 6.7 μM", "value": "−0.07", "unit": "log10"}, {"measurement": "Significant log10 reduction vs nontreated controls: Plasminogen activation inhibitor 1 (PAI-1)", "setting": "[1]; 6.7 μM", "value": "−0.08", "unit": "log10"}, {"measurement": "Significant log10 reduction vs nontreated controls: 72-hour fibroblast proliferation", "setting": "[1]; 20.0 μM", "value": "−1.1", "unit": "log10"}, {"measurement": "Significant log10 reduction vs nontreated controls: Collagen I", "setting": "[1]; 20.0 μM", "value": "−0.13", "unit": "log10"}, {"measurement": "Significant log10 reduction vs nontreated controls: Collagen III", "setting": "[1]; 20.0 μM", "value": "−0.13", "unit": "log10"}, {"measurement": "Significant log10 reduction vs nontreated controls: Interferon gamma-induced protein 10 (IP-10)/CXCL10", "setting": "[1]; 20.0 μM", "value": "−0.14", "unit": "log10"}, {"measurement": "Significant log10 reduction vs nontreated controls: Interferon-inductible T cell alpha chemoattractant (I-TAC)/CXCL11", "setting": "[1]; 20.0 μM", "value": "−0.17", "unit": "log10"}, {"measurement": "Significant log10 reduction vs nontreated controls: Monokine induced by gamma interferon (MIG)/CXCL9", "setting": "[1]; 20.0 μM", "value": "−0.10", "unit": "log10"}, {"measurement": "Significant log10 reduction vs nontreated controls: Plasminogen activation inhibitor 1 (PAI-1)", "setting": "[1]; 20.0 μM", "value": "−0.13", "unit": "log10"}, {"measurement": "Significant log10 reduction vs nontreated controls: Vascular cell adhesion molecule 1 (VCAM-1)", "setting": "[1]; 20.0 μM", "value": "−0.28", "unit": "log10"}, {"measurement": "Significant log10 reduction vs nontreated controls: Secreted interleukin 17A (IL-17A)", "setting": "[2]; 2.2 μM", "value": "−0.25", "unit": "log10"}, {"measurement": "Significant log10 reduction vs nontreated controls: Secreted interleukin 17F (IL-17F)", "setting": "[2]; 2.2 μM", "value": "−0.16", "unit": "log10"}, {"measurement": "Significant log10 reduction vs nontreated controls: Secreted immunoglobulin G (IgG)", "setting": "[2]; 6.7 μM", "value": "−0.17", "unit": "log10"}, {"measurement": "Significant log10 reduction vs nontreated controls: Secreted immunoglobulin G (IgG)", "setting": "[2]; 20.0 μM", "value": "−0.55", "unit": "log10"}, {"measurement": "Significant log10 reduction vs nontreated controls: Secreted interleukin 6 (IL-6)", "setting": "[2]; 20.0 μM", "value": "−0.29", "unit": "log10"}, {"measurement": "Significant log10 reduction vs nontreated controls: Secreted interleukin 17A (IL-17A)", "setting": "[2]; 20.0 μM", "value": "−0.29", "unit": "log10"}, {"measurement": "Significant log10 reduction vs nontreated controls: Secreted interleukin 17F (IL-17F)", "setting": "[2]; 20.0 μM", "value": "−0.18", "unit": "log10"}, {"measurement": "Secreted IgG (FIG. 2)", "setting": "[3]; 168 hours incubation, 6.7 μM and 20 μM bioactive, vs controls", "value": "dose-dependent decreases"}, {"measurement": "Cytotoxicity", "setting": "[3]; all four concentrations (740 nm and 2.2, 6.7, and 20 μM)", "value": "non-cytotoxic"}, {"measurement": "Significantly reduced cell-based biomarkers relevant to: Allergy", "setting": "[4]; Table 6", "value": "x"}, {"measurement": "Significantly reduced cell-based biomarkers relevant to: Asthma", "setting": "[4]; Table 6", "value": "x"}, {"measurement": "Significantly reduced cell-based biomarkers relevant to: Autoimmunity", "setting": "[4]; Table 6", "value": "x"}, {"measurement": "Significantly reduced cell-based biomarkers relevant to: Hematological oncology", "setting": "[4]; Table 6", "value": "x"}, {"measurement": "Significantly reduced cell-based biomarkers relevant to: SLE", "setting": "[4]; Table 6", "value": "x"}, {"measurement": "Significantly reduced cell-based biomarkers relevant to: T-cell dependent B cell proliferation", "setting": "[4]; Table 6", "value": "x"}, {"measurement": "Significantly reduced cell-based biomarkers relevant to: Chronic inflammation", "setting": "[4]; Table 7", "value": "x"}, {"measurement": "Significantly reduced cell-based biomarkers relevant to: Organ transplantation", "setting": "[4]; Table 7", "value": "x"}, {"measurement": "Significantly reduced cell-based biomarkers relevant to: Psoriasis", "setting": "[4]; Table 7", "value": "x"}, {"measurement": "Significantly reduced cell-based biomarkers relevant to: Rheumatoid arthritis", "setting": "[4]; Table 7", "value": "x"}, {"measurement": "Significantly reduced cell-based biomarkers relevant to: Thl type inflammation", "setting": "[4]; Table 7", "value": "x"}, {"measurement": "Significantly reduced cell-based biomarkers relevant to: Crohn's disease", "setting": "[4]; Table 8", "value": "x"}, {"measurement": "Significantly reduced cell-based biomarkers relevant to: Fibrosis", "setting": "[4]; Table 8", "value": "x"}, {"measurement": "Significantly reduced cell-based biomarkers relevant to: Hematological oncology", "setting": "[4]; Table 8", "value": "x"}, {"measurement": "Significantly reduced cell-based biomarkers relevant to: Stromal biology in tumors", "setting": "[4]; Table 8", "value": "x"}]}]}
